Assay [1] addresses T1, Sterol O-acyltransferase 1 (Mus musculus, UniProt Q61263).
T1 sequence (Q61263 whole entry): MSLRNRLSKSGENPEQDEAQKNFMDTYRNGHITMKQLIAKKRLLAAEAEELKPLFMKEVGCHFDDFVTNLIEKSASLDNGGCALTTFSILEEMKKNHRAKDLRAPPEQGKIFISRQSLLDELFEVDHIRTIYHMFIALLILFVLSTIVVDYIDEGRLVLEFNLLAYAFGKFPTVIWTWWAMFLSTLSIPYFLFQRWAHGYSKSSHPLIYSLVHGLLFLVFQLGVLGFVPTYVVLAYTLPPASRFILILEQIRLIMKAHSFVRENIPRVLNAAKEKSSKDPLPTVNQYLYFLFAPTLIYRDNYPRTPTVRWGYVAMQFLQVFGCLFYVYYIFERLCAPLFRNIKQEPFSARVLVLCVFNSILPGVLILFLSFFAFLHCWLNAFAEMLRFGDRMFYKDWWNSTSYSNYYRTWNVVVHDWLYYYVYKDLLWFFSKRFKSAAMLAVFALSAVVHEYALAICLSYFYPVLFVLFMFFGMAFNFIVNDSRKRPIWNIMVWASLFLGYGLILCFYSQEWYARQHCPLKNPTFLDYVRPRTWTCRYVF
Nature of the assay: Inhibition of Acyl coenzyme A:cholesterol acyltransferase in J774 Macrophage cell culture. The format is cell-based.

Assay [2] concerns the target T2, Sterol O-acyltransferase 1 (Rattus norvegicus, UniProt O70536).
T2 sequence (O70536 whole entry): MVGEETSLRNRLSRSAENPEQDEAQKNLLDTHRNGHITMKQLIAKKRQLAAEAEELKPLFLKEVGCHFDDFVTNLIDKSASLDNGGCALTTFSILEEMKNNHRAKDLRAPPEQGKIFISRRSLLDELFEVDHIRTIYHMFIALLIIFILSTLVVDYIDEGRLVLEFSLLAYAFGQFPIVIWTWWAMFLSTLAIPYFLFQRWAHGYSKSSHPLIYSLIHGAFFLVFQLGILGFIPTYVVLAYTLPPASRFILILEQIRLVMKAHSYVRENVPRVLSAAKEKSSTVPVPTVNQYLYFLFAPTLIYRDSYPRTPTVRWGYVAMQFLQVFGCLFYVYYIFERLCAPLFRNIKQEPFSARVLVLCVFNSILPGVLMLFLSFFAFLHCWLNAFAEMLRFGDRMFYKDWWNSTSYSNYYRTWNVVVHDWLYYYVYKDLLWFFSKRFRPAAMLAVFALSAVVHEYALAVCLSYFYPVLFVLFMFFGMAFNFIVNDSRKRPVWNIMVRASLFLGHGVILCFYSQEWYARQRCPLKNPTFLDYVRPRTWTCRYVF
The assay can be described thus: In vitro inhibition of Acyl coenzyme A:cholesterol acyltransferase in rat hepatic microsomes was measured by using AIV assay. On the set-up: species or system Liver.

Assay [3] has as its system Cricetinae gen. sp. The assay can be described thus: In vivo cholesterol lowering at a single dose of 25 mg/kg in the hamster was determined. Type of assay: functional, Cricetulus griseus.
Assay [4] relates to Cricetinae gen. sp. The assay can be described thus: Tested for effective dose required to lower the serum cholesterol levels in hamsters. The format is functional, Cricetulus griseus.

With `COCCOCCN(CCCCCSc1nc(-c2ccc(OC)cc2)c(-c2ccc(OC)cc2)[nH]1)c1nc2ccccc2o1`, the IC50 (usually the midpoint of a concentration-inhibition curve) in assay [1] came out at 0.08 µM; in assay [2], 0.04 µM.
In turn, `CC(CCCSc1nc(-c2ccccc2)c(-c2ccccc2)[nH]1)(CNc1nc2ccccc2o1)c1ccccc1` (configuration not stated) came in with an IC50 in assay [1] of 5 µM.
Take `CCCCN(CCCCCSc1nc(-c2ccc(OC)cc2)c(-c2ccc(OC)cc2)[nH]1)c1nc2cc(Cl)c([N+](=O)[O-])cc2o1`: in assay [1], the IC50 amounted to 1 µM. This IC50 lies about 5-fold lower than the previous one.
For the compound `COc1ccc(-c2nc(SCC(C)(CSc3nc4ccccc4o3)c3ccccc3)[nH]c2-c2ccc(OC)cc2)cc1` (configuration not stated), in assay [1], inhibition was half-maximal at 3.24 µM (IC50). This IC50 is about 3.2-fold higher than that of the compound before.
In assay [1], `COc1ccc(-c2nc(SCCCCCSc3nc4ncncc4[nH]3)[nH]c2-c2ccc(OC)cc2)cc1` registered an IC50 of 0.88 µM.
Turning to `CCCCCCCN(CCCCSc1nc(-c2ccc(OC)cc2)c(-c2ccc(OC)cc2)[nH]1)c1nc2ccccc2o1`, half-maximal inhibition in assay [1] (IC50) was put at 0.5 µM.
As to `CCCCCCCN(CCCCCSc1nc(-c2ccc(OC)cc2)c(-c2ccc(OC)cc2)[nH]1)c1nc2ccccc2o1`, the IC50 in assay [1] came to 0.08 µM; in assay [2], 0.04 µM.
Taken in the same sequence, the figures for `COc1ccc(-c2nc(SCCCCCn3c(C(C)C)nc4ccccc43)[nH]c2-c2ccc(OC)cc2)cc1` were 0.32 µM and 0.23 µM.
As for `COc1ccc(-c2nc(SCCCCCSc3nc(-c4ccc(OC)cc4)c(-c4ccc(OC)cc4)[nH]3)[nH]c2-c2ccc(OC)cc2)cc1`, the IC50 amounted to 0.2 µM in assay [1] and 0.22 µM in assay [2].
As for `CN(C)c1ccc(-c2nc(SCCCCCSc3nc(-c4ccc(N(C)C)cc4)c(-c4ccc(N(C)C)cc4)[nH]3)[nH]c2-c2ccc(N(C)C)cc2)cc1`, the figures for the IC50 in assay [1] and in assay [2] were 0.06 µM and 0.09 µM, respectively.
Take `c1ccc(-c2nc(SCCCCCSc3nc(-c4ccccc4)c(-c4ccccc4)[nH]3)[nH]c2-c2ccccc2)cc1`: the IC50 was determined as 6.92 µM in assay [1] and 0.03 µM in assay [2].
Consider `COc1ccc(-c2nc(SCCCCCn3c4ccccc4c4ccccc43)[nH]c2-c2ccc(OC)cc2)cc1`, for which the IC50 in assay [1] was 55.7 µM; in assay [2] it was 50 µM.
For the compound `COc1ccc(-c2nc(SCCCCCSc3ncnc4nc[nH]c34)[nH]c2-c2ccc(OC)cc2)cc1`, the IC50 in assay [1] was 3.65 µM.
With `COc1ccc(-c2nc(SCCCCCn3c(Nc4ccccc4)nc4ccccc43)[nH]c2-c2ccc(OC)cc2)cc1`, the IC50 in assay [1] was 0.64 µM; in assay [2] it was 0.75 µM.
As to `CN(C)c1ccc(-c2nc(SCCCCCNc3nc4ccccc4o3)[nH]c2-c2ccc(N(C)C)cc2)cc1`, the midpoint of inhibition in assay [1], the IC50, lay at 0.09 µM.
For the compound `CCN(CCCCCSc1nc(-c2ccccc2)c(-c2ccc(SC)cc2)[nH]1)c1nc2ccccc2o1`, the IC50 in assay [1] was found to be 0.5 µM; in assay [2], 0.7 µM.
`Cc1cc(C)n(CCCCCSc2nc(-c3ccc(N(C)C)cc3)c(-c3ccc(N(C)C)cc3)[nH]2)n1` displayed an IC50 in assay [1] of 0.25 µM. In other words, the sub-micromolar range.
For `CC(C)c1nc2ccccc2n1CCCCCSc1nc(-c2ccc(N(C)C)cc2)c(-c2ccc(N(C)C)cc2)[nH]1`, the figures for the IC50 in assay [1] and in assay [2] were 0.08 µM and 0.4 µM, respectively.
Take `COc1ccc(-c2nc(SCCCCCSc3nc4c([nH]3)c(=O)n(C)c(=O)n4C)[nH]c2-c2ccc(OC)cc2)cc1`: in assay [1], the IC50 was 8.33 µM. In other words, the single-digit micromolar range.
`c1ccc(-c2nc(SCc3cccc(C4(CNc5nc6ccccc6o5)CCCC4)c3)[nH]c2-c2ccccc2)cc1` registered an IC50 in assay [1] of 5.9 µM.
Still for that read-out and setting: to `c1ccc(-c2nc(SCCCCCSc3ncnc4nc[nH]c34)[nH]c2-c2ccccc2)cc1` belongs 7.51 µM.
Regarding `COc1ccc(-c2nc(SCCCCCn3c(SC)nc4ccccc43)[nH]c2-c2ccc(OC)cc2)cc1`, the IC50 amounted to 0.95 µM in assay [1] and 1.4 µM in assay [2].
In the case of `CCN(CCCCCSc1nc(-c2ccc(N(C)C)cc2)c(-c2ccc(N(C)C)cc2)[nH]1)c1nc2ccccc2o1`, in assay [1], the midpoint of inhibition, the IC50, lay at 0.05 µM.
Take `CC(C)c1nc2ccccc2n1CCCCCSc1nc(-c2ccccc2)c(-c2ccccc2)[nH]1`: the IC50 in assay [1] stood at 0.71 µM; in assay [2], 0.69 µM.
For `CCCCN(CCCCCSc1nc(-c2ccc(OC)cc2)c(-c2ccc(OC)cc2)[nH]1)c1nc2cc(C(C)(C)C)ccc2o1`, in that order: 0.07 µM and 0.08 µM.
`CCCCCCCN(CCCCCSc1nc(-c2ccccc2)c(-c2ccccc2)[nH]1)c1nc2ccccc2s1` came in with an IC50 in assay [1] of 0.66 µM. In other words, the sub-micromolar range.
Consider `COc1ccc(-c2nc(SCCCCCSc3nc4ccccc4[nH]3)[nH]c2-c2ccc(OC)cc2)cc1`, for which the IC50 in assay [1] is 0.83 µM; in assay [2], 0.63 µM.
Turning to `CCCCCCCN(CCCCCSc1nc(-c2ccccc2)c(-c2ccccc2)[nH]1)c1nc2ccccc2o1`, the values for the IC50 in assay [1] and in assay [2] were 0.02 µM and 0.3 µM, respectively. Besides, in the assay with Cricetinae gen. sp. [3], the Activity is on record as 30%.
As for `CCCCCCCN(CCCCCSc1nc(-c2ccc(OC)cc2)c(-c2ccc(OC)cc2)[nH]1)c1nc2ccccc2[nH]1`, the results for the IC50 in assay [1] and in assay [2] were 0.49 µM and 0.09 µM, respectively.
Regarding `CCN(CCCCCSc1nc(-c2ccc(OC)cc2)c(-c2ccc(OC)cc2)[nH]1)c1nc2ccccc2o1`, the figures for the IC50 in assay [1] and in assay [2] were 0.09 µM and 0.14 µM, respectively.
As to `CCCCN(CCCCCSc1nc(-c2ccc(OC)cc2)c(-c2ccc(OC)cc2)[nH]1)c1nc2ccccc2o1`, the IC50 turned out to be 0.07 µM in assay [1] and 0.08 µM in assay [2].
As for `CCCCCCCN(CCCCCSc1nc(-c2ccccc2)c(-c2ccccc2)[nH]1)C(=O)Nc1ccc(F)cc1F` [LECIMIBIDE], the 50% effect level with Cricetinae gen. sp. [4] (ED50) was put at a dose of 3 mg/kg. The same compound had an IC50 in assay [1] of 1 µM.

Source of the values: ChEMBL document CHEMBL1128040, “Acyl CoA:cholesterol acyltransferase (ACAT) inhibitors: heterocyclic bioisosteres for the urea group in DuP 128” (Bioorg Med Chem Lett, 1995).
